According to patent US20190169134A1, “NOVEL CLASS OF QUINOLONE HETEROCYCLIC AROMATIC MOLECULES FOR CANCER TREATMENT” (RenoTarget Therapeutics, Inc., priority 2016, published 2019):

Columns and labels:
Format in all cases: cell-based, human
[1] = test system: HCC827 TR cells; assay: Combination analysis of cell growth inhibition (SRB, CalcuSyn)
Description: (§1) As described in Example 2.1. Two cell lines, HCC827-P and HCC827-TR (Tarceva-resistant HCC727 cells-an EGFRi resistant cell line with MET amplification) (Wang, Pursell et al. 2013) were used in the combination study. Exponentially growing HC[…] and HCC827-TR cells were seeded into 96-wells dishes at density of 3,000 cells per well. Twenty-four hours later, the cells were exposed concurrently to serial dilution of Reno647 or Carboplatin or Camptothecin alone or in combination at a ratio of 1:50 with Carboplatin or at ratio 1:1 with Camptothecin for 3 days. Reno647 were concurrently and sequentially with paclitaxel (Taxol) at ratio of 200:1 for 6 days. For sequential exposure, the cells were treated with Reno647 for 3 days, after removal of the drug containing medium, the cells were treated with Taxol for additional 3 days, or the cells were treated by Taxol first followed by the treatment with Reno 647. After incubation for 6 days, the cell growth was measured by SRB as described previously in Example 2.1 section, and the percentages of inhibition (1-T/C) % were calculated, and data were analyzed by a PC program, CalcuSyn, Biosoft (edited by T.-C. Chou, Memorial Sloan-Kettering Cancer Center, New York, and M. P. Hayball, at Cambridge, UK, 1996). The computer-calculated combination index (CI) was used to judge the outcomes of a combination: […] It has long been accepted that chemotherapy provided some benefit for patients with non-small-cell lung cancer (NSCLC) in terms of quality of life and symptomatology as well as modest improvements in survival. […] Cell growth was determined by SRB as described above. […] Cell growth was determined by SRB as described above. […] (FIG. 5 C&D, CIs were well below 1 at effective concentration), particularly at higher concentration where Reno647 achieves its effective inhibition on […]. […] However, induction of EGFR activation mediated by Taxol may compromise activity of EGFR inhibitors. To examine our hypothesis, Taxol was combined with Reno647 in three different sequential exposures: • Combination 1: exposure of HC[…] or TR cells to Reno647+Taxol simultaneously for 6 days. • Combination 2: exposure of the cells to Reno647 first for 3 days followed by treatment with Taxol for an additional 3 days, or • Combination 3: exposure of the cells to Taxol first for 3 days followed by treatment with Reno647 for an additional 3 days. Exposure of the cells to either Reno647 or Taxol served as controls. After exposure, cell growth was determined by SRB and analyzed as described in above section.

[2] = test system: HCC827 P cells; assay: as above
Description: as §1

[3] = test system: HCC827 P cells; assay: Western blot of EGFR downstream signaling; conditions: 24 hrs
Description: The cells were washed with PBS, harvested and cellular proteins were extracted. […] Protein or phosphor-protein levels of pEGFRTyr1068, pEGFRTry845, pAktSer473, pStat3Tyr705, MEK1/2, pMEK1/2, p27, and pp70 S6 kinase 2 were determined by Western blot using specific antibodies. β-actin was used as loading control.
HCC827 P or other indicated cells at exponential growth phase were treated with indicated compounds for 24 hrs. The cells were washed with PBS, harvested and cellular proteins were extracted.

[4] = HCC827TR, ratio 200:1, 3 days + 3 days
[5] = HCC827P, ratio 200:1, 3 days + 3 days

C#Cc1cccc(Nc2ncnc3cc(OCCOC)c(NC(=O)c4ccc(F)c([N+](=O)[O-])c4)cc23)c1 [Reno647, 4-Fluoro-N-[4-(3-ethynyl-phenylamino)-7-(2-methoxy-ethoxy)-quinazolin-6-yl]-3-nitro-benzamide] was tested, and the “combination index (CI), Reno647 with Camptothecin” value ([1]; HCC827 TR, ratio 1:1, concurrent, 3 days, at effective concentration) was “below 1”, the “combination index (CI), Reno647 with Carboplatin” value ([1]; HCC827 TR, ratio 1:50, concurrent, 6 days, at effective concentrations) was “below 1” and the “combination index (CI), Reno647 first followed by Taxol” value [1, 4] was greater than 1. For the same compound, the “combination index (CI), Taxol first followed by Reno647” value [1, 4] was less than 1, the “combination index (CI), Reno647 and Taxol concurrently” value ([1]; HCC827TR, ratio 200:1, 6 days) was less than 1 and the “combination index (CI), Reno647 with Camptothecin” value ([2]; HCC827 P, ratio 1:1, concurrent, 3 days, at effective concentration) was “below 1”. For the same compound, the “combination index (CI), Reno647 with Carboplatin” value ([2]; HCC827 P, ratio 1:50, concurrent, 6 days, at effective concentrations) was “below 1”, the “combination index (CI), Reno647 first followed by Taxol” value [2, 5] was greater than 1 and the “combination index (CI), Taxol first followed by Reno647” value [2, 5] was less than 1. For the same compound, the “combination index (CI), Reno647 and Taxol concurrently” value ([2]; HCC827P, ratio 200:1, 6 days) was less than 1, the Phospho-Akt level [3] was “significantly reduced” and the “level of pEGFRTyr845” value [3] was “significantly decreased”. For the same compound, the “level of pEGFRTyr1068” value [3] was “significantly decreased”, the “level of pERK1/2 (Ras/Raf/MEK pathway)” value [3] was “significant decrease” and the p27 level [3] was “induction”. For the same compound, the “pp-70-6S activity (p70-S6 activation)” value [3] was “significant decreases” and the “total MEK1/2 protein level” value [3] was “no changes”.
